Results: US12171754B2, “Combinational uses of nitroxoline and its analogues with chemotherapies and immunotherapies in the treatment of cancers” (Jiangsu Yahong Meditech Co., Ltd., priority 2016, dated 2024)
Values joined by “and” are separate entries in the source; they are usually repeats but may differ in a detail not shown here. Equal values may be shown once. Read-outs that look alike come from different tables or passages of the source.

Tests used:
[1] = system: human bladder cancer cell line 5637; assay: MTT assay, inhibition of cell growth (single drugs and combinations with NIT; CI by Chou's method); type: cell-based; settings: for IC25 / IC75: 5637; for Average Fa: 96 hours
Protocol: (§1) The combinational studies of NIT and chemotherapies were conducted by mixing NIT with individual chemotherapies at five to seven concentration levels, with the medium concentration levels close to their IC50 values. The combinational indices (CIs) were calculated and plotted according to Ting-Chao Chou's method (19) to estimate the combinational effects, including synergism, addition and antagonism.
(§2) Compounds: NIT, carboplatin, paclitaxel, epirubicin and pirarubicin were purchased from suppliers, and were dissolved in the DMSO to stock solution and store in −20° C. Before use, the stock solutions were diluted to different concentrations of working solutions. The DMSO concentration in working solutions was less than 1%. All cancer cell lines were purchased from vendors.
(§3) An MTT assay was used as the test method. An appropriate amount of cells (2×10^3/100 μL) was seeded into 96-well plate and incubated at 37° C. in a CO2 incubator overnight for cell adhesion and adaptation. Cancer cells were also seeded in a separate 96-well plate (plate T0), 12 wells/cell line, to measure the OD value at time zero (T0). After overnight adaptation, 20 μL MTT reagent were added per well (final concentration 0.5 mg/mL) to plate T0 and incubated at 37° C. for 4 hours. The supernatant medium was pipetted out, and about 150 μL DMSO were added per well. The plate was read on a plate reader using 550 nm as the test wavelength and 630 nm as the reference wavelength to obtain the OD value at time zero (T0). After overnight adaptation, the test compounds and vehicle were added into the plate to treat the cells. The test compounds were tested at 6 concentrations in triplicate wells. The plate was incubated at 37° C. in a CO2 incubator for 48 h. A longer incubation time can be used. 20 μL MTT reagent were added per well and incubated at 37° C. for 4 h. the supernatant medium was pipetted out, and about 150 μL DMSO were added per well. The plate was read on a plate reader (TECAN, Infinite M200) using about […] as the test wavelength and about […] as the reference wavelength. Cell viability (%) was calculated in two ways: % Viability=[(T−B)/(C−B)]×100% % Viability=[(T−C0)/(C−C0)]×100%
(§4) T: Mean Absorbance of Treatment at various hours;
(§5) C: Mean Absorbance of negative Control at various hours;
(§6) B: Mean Absorbance of blank well (only culture medium) at various hours;
(§7) C0: Mean Absorbance of negative Control at 0 h.
(§8) The results are expressed as mean±SD. The IC50 was calculated by XLfit software. The test for each compound was independently repeated once.

[2] = system: human liver cancer cell line HepG2; assay: as above; type: cell-based
Protocol: as §1, §2, §3, §4, §5, §6, §7, §8

MBT-2-Luc bladder cancer [3] = assay: Oral NIT with intravesical MMC in orthotopic mouse MBT-2-Luc bladder cancer model; settings: NIT 15 mg/kg Bid oral, MMC 1 mg/ml Q7d intravesical, single drug or actual observed value of combination; for Survival Proportion: end of the experiment (45 days)
Protocol: The tumor volume was analyzed by the Xenogen IVIS200 system following the indicated treatment. […] The tumor volume of each mouse was determined by region-of-interest analysis of total photons per second. Six mice were analyzed in each group.
To establish the orthotopic bladder cancer tumors, the mice were anesthetized by the intraperitoneal (i.p.) administration of ketamine/xylazine solution at a dose of 0.1 ml/10 g body weight (K113; Sigma-Aldrich Japan G.K., Tokyo, Japan). A 24-gauge Teflon intravenous catheter was subsequently inserted through the urethra into the bladder or prostate using an inert lubricant. In order to prepare the bladder for tumor implantation, a brief acid exposure, followed by alkaline neutralization, promoted a chemical lesion on the bladder wall, performed by the intravesical instillation of 8 μl 1 MOI silver nitrate. This led to the formation of an adequate and controlled diffuse bladder wall lesion. After 15 sec, the content was washed out by transurethral infusion of PBS. The first catheter was removed and a new 24-gauge catheter was inserted in the urethra for intravesical instillation of MBT-2-Luc cells (5×10^4 cells mixed with 0.1 ml PBS) and retained for 1.5 h by stitches. Every 10 days, tumor imaging was performed following i.p. administration of luciferin using bioluminescence technology (Xenogen IVIS200 system; Xenogen Corporation, Hopkinton, Mass., USA).
For the NIT and MMC combination, the mice carrying orthotopic bladder cancer tumors were randomly divided into four groups: control (PBS), NIT, MMC, and the combination of NIT and MMC.
(§9) The mice received i.p. injections of luciferin, and the luciferase expression in the tumors was measured by the Xenogen IVIS200 System.
Additivity was determined using the fractional product concept or Bliss Independence model: Exy=Ex+Ey−(ExEy), where EXY is the additive effect of the 2 compounds x and y as calculated by the product of the individual effect of the 2 compounds, Ex and Ey. Synergy was established when the actual observed tumor inhibition value was greater than the expected tumor inhibition value determined by the Bliss Independence model (20).

RM-9-Luc prostate cancer = assay: Oral NIT with intraperitoneal anti-PD-1 antibody in orthotopic mouse RM-9-Luc prostate cancer model; type: in vivo
Protocol: Eight mice were analyzed for each group.
A low abdominal transverse incision was made, and the bilateral dorsal lobes of prostate were exposed. Following the trypsinization of RM-9-Luc cells, 5.0×10^3 cells in 10 μl of Hanks' balanced salt solution were injected using a new 24-gauge catheter directly into the right dorsal lobe of the prostate. A clearly recognizable bleb within the injected prostatic lobe was considered as a sign of a technically satisfactory injection. The abdominal wound was closed with stainless steel clips (Autoclip; Becton Dickinson Co., Sparks, Md.).

MBT-2-Luc bladder cancer [4] = system: MBT-2-Luc bladder cancer; design: concentration or dose not given beside the values; settings: mouse, in vivo
MBT-2-Luc bladder cancer [5] = assay: Oral NIT with intraperitoneal anti-PD-1 antibody in orthotopic mouse MBT-2-Luc bladder cancer model
Protocol: The tumor volume of each mouse was determined by region-of-interest analysis of total photons per second. Five mice were analyzed in each group.
To establish the orthotopic bladder cancer tumors, the mice were anesthetized by the intraperitoneal (i.p.) administration of ketamine/xylazine solution at a dose of 0.1 ml/10 g body weight (K113; Sigma-Aldrich Japan G.K., Tokyo, Japan). A 24-gauge Teflon intravenous catheter was subsequently inserted through the urethra into the bladder or prostate using an inert lubricant. In order to prepare the bladder for tumor implantation, a brief acid exposure, followed by alkaline neutralization, promoted a chemical lesion on the bladder wall, performed by the intravesical instillation of 8 μl 1 MOI silver nitrate. This led to the formation of an adequate and controlled diffuse bladder wall lesion. After 15 sec, the content was washed out by transurethral infusion of PBS. […]
as §9
Additivity was determined using the fractional product concept or Bliss Independence model: Exy=Ex+Ey−(ExEy), where EXY is the additive effect of the 2 compounds x and y as calculated by the product of the individual effect of the 2 compounds, Ex and Ey.

[6] = Homo sapiens, inhibition of cell growth, 5637 (Table 9), read-out: IC50
[7] = Homo sapiens, cell line 5637, read-out: IC50 for inhibition of cell growth

`N.N.O=C([O-])C1(C(=O)[O-])CCC1.[Pt+2]` [Carboplatin, carboplatin] was tested, and the “Inhibition Rates” value ([1]; Carbo 0.5 μg/ml, 120 hours) was 31.5%, the “Inhibition Rates” value ([1]; Carbo 1 μg/ml, 120 hours) was 53.7% and the “Inhibition Rates” value ([1]; Carbo 2 μg/ml, 120 hours) was 69.9%. For the same molecule, the “Inhibition Rates” value ([1]; Carbo 4 μg/ml, 120 hours) was 88.1%, the “Inhibition Rates” value ([1]; Carbo 8 μg/ml, 120 hours) was 91.5% and the “IC50 for inhibition of cell growth” value ([1]; cell line 5637) was 0.917 µg/mL. For the same molecule, the “Inhibition Rates” value ([2]; Carbo 4 μg/ml, 120 hours) was 38.9%, the “Inhibition Rates” value ([2]; Carbo 8 μg/ml, 120 hours) was 70.7% and the “Inhibition Rates” value ([2]; Carbo 16 μg/ml, 120 hours) was 85.2%. The “Inhibition Rates” value ([2]; Carbo 32 μg/ml, 120 hours) was 89.1%, the “Inhibition Rates” value ([2]; Carbo 64 μg/ml, 120 hours) was 93.0% and the “Inhibition Rates” value ([2]; Carbo 128 μg/ml, 120 hours) was 93.9%. The “IC50 for inhibition of cell growth” value ([2]; cell line HepG2) was 3.687 µg/mL.

`COc1cccc2c1C(=O)c1c(O)c3c(c(O)c1C2=O)C[C@@](O)(C(=O)CO)C[C@@H]3O[C@H]1C[C@H](N)[C@@H](O)[C@H](C)O1` [Epirubicin, epirubicin] showed an IC50 [1, 6] of 0.0452 µg/mL, an IC25 ([1]; inhibition of cell growth) of 34.97 ng/mL and an IC75 ([1]; inhibition of cell growth) of 63.93 ng/mL.

With `CO[C@@]12[C@H](COC(N)=O)C3=C(C(=O)C(C)=C(N)C3=O)N1C[C@@H]1N[C@@H]12` [Mitomycin C, mitomycin C] the “Average Fa” value ([1]; NIT 0, Mitomycin C 3.13 (units not given)) was 1.6%, the “Average Fa” value ([1]; NIT 0, Mitomycin C 12.5 (units not given)) was 27.7% and the “Average Fa” value ([1]; NIT 0, Mitomycin C 50 (units not given)) was 77.9%. The “Average Fa” value ([1]; NIT 0, Mitomycin C 200 (units not given)) was 79.4%, the IC25 ([1]; inhibition of cell growth) was 48.36 ng/mL and the IC75 ([1]; inhibition of cell growth) was 536.62 ng/mL. The IC50 ([1]; inhibition of cell growth, 5637 (Table 9)) was 0.15253 µg/mL, the “Tumor Growth Inhibition” value (MBT-2-Luc bladder cancer [3]) was 0.56 and the “Survival Proportion” value (MBT-2-Luc bladder cancer [3]) was 0.57.

With `O=[N+]([O-])c1ccc(O)c2ncccc12` [NIT, Nitroxoline] the “Tumor Weight Proportion” value (RM-9-Luc prostate cancer; NIT 15 mg/kg bid p.o., anti-PD-1 10 mg/kg q4d intraperitoneal, single drug or actual observed value of combination) was 0.37, the “tumor growth inhibition rate” value (RM-9-Luc prostate cancer; tumor volume, FIG. 12B, NIT 15 mg/kg oral, anti-PD-1 10 mg/kg intraperitoneal) was 52% and the “Tumor Growth Inhibition” value (RM-9-Luc prostate cancer; tumor volume, NIT 15 mg/kg bid p.o., anti-PD-1 10 mg/kg q4d intraperitoneal, single drug or actual observed value of combination) was 0.52. For the same molecule, the “tumor inhibition by tumor weight” value (RM-9-Luc prostate cancer; tumor weight, FIG. 12D, NIT 15 mg/kg oral, anti-PD-1 10 mg/kg intraperitoneal) was 37%, the “Survival Proportion” value (MBT-2-Luc bladder cancer [4]) was 0.4 and the “Tumor Growth Inhibition” value (MBT-2-Luc bladder cancer [4]) was 0.52 and 0.35. For the same molecule, the inhibition at 0.25 µg/mL ([1]; Homo sapiens, NIT 0.25 μg/ml, 120 hours, read-out: Inhibition Rates) was 18%, the inhibition at 0.5 µg/mL ([1]; Homo sapiens, NIT 0.5 μg/ml, 120 hours, read-out: Inhibition Rates) was 52% and the inhibition at 1 µg/mL ([1]; Homo sapiens, NIT 1 μg/ml, 120 hours, read-out: Inhibition Rates) was 79.9%. It also gave an inhibition at 2 µg/mL ([1]; Homo sapiens, NIT 2 μg/ml, 120 hours, read-out: Inhibition Rates) of 92.3%, an inhibition at 4 µg/mL ([1]; Homo sapiens, NIT 4 μg/ml, 120 hours, read-out: Inhibition Rates) of 95.5% and an IC50 [1, 7] of 0.517 µg/mL. For the same molecule, the “Average Fa” value ([1]; NIT 625, Mitomycin C 0 (units not given)) was −7.2%, the “Average Fa” value ([1]; NIT 1250, Mitomycin C 0 (units not given)) was −3.8% and the “Average Fa” value ([1]; NIT 2500, Mitomycin C 0 (units not given)) was 23.3%. For the same molecule, the “Average Fa” value ([1]; NIT 5000, Mitomycin C 0 (units not given)) was 74.3%, the “Average Fa” value ([1]; NIT 10000, Mitomycin C 0 (units not given)) was 94.0% and the inhibition at 0.5 µg/mL ([2]; Homo sapiens, HepG2, NIT 0.5 μg/ml, 120 hours, read-out: Inhibition Rates) was 3.2%. For the same molecule, the inhibition at 1 µg/mL ([2]; Homo sapiens, HepG2, NIT 1 μg/ml, 120 hours, read-out: Inhibition Rates) was 21.7%, the inhibition at 2 µg/mL ([2]; Homo sapiens, HepG2, NIT 2 μg/ml, 120 hours, read-out: Inhibition Rates) was 80.3% and the inhibition at 4 µg/mL ([2]; Homo sapiens, HepG2, NIT 4 μg/ml, 120 hours, read-out: Inhibition Rates) was 90.5%. The inhibition at 8 µg/mL ([2]; Homo sapiens, HepG2, NIT 8 μg/ml, 120 hours, read-out: Inhibition Rates) was 93.5%, the inhibition at 16 µg/mL ([2]; Homo sapiens, HepG2, NIT 16 μg/ml, 120 hours, read-out: Inhibition Rates) was 95.3% and the IC50 ([2]; Homo sapiens, cell line HepG2) was 1.86 µg/mL. For the same molecule, the “Tumor Growth Inhibition” value (MBT-2-Luc bladder cancer [5]; NIT 15 mg/kg bid p.o., anti-PD-1 10 mg/kg q5d intraperitoneal, single drug or actual observed value of combination) was 0.31, the tumor inhibition rate (MBT-2-Luc bladder cancer [5]; NIT 15 mg/kg oral, anti-PD-1 10 mg/kg intraperitoneal, FIG. 11B) was 31% and the “Tumor Growth Inhibition” value (MBT-2-Luc bladder cancer [3]) was 0.33. For the same molecule, the “Survival Proportion” value (MBT-2-Luc bladder cancer [3]) was 0.33.

For `CC(=O)O[C@H]1C(=O)[C@@]2(C)[C@H]([C@H](OC(=O)c3ccccc3)[C@]3(O)C[C@H](OC(=O)[C@H](O)[C@@H](NC(=O)c4ccccc4)c4ccccc4)C(C)=C1C3(C)C)[C@]1(OC(C)=O)CO[C@@H]1C[C@@H]2O` [Paclitaxel, paclitaxel], the IC50 [1, 7] was 0.000289 µg/mL, the “Inhibition Rates” value ([1]; Taxol 0.125 ng/ml, 112 hours) was 11.9% and the “Inhibition Rates” value ([1]; Taxol 0.25 ng/ml, 112 hours) was 47.6%. For the same molecule, the “Inhibition Rates” value ([1]; Taxol 0.5 ng/ml, 112 hours) was 84.3%, the “Inhibition Rates” value ([1]; Taxol 1 ng/ml, 112 hours) was 90.3% and the “Inhibition Rates” value ([1]; Taxol 2 ng/ml, 112 hours) was 96.8%. For the same molecule, the IC50 ([2]; Homo sapiens, cell line HepG2) was 0.0025 µg/mL, the “Inhibition Rates” value ([2]; Taxol 0.5 ng/ml, 112 hours) was 5.8% and the “Inhibition Rates” value ([2]; Taxol 1 ng/ml, 112 hours) was 14.0%. For the same molecule, the “Inhibition Rates” value ([2]; Taxol 2 ng/ml, 112 hours) was 47.5%, the “Inhibition Rates” value ([2]; Taxol 4 ng/ml, 112 hours) was 75.8% and the “Inhibition Rates” value ([2]; Taxol 8 ng/ml, 112 hours) was 90.4%. The “Inhibition Rates” value ([2]; Taxol 16 ng/ml, 112 hours) was 92.7%.

In the case of `COc1cccc2c1C(=O)c1c(O)c3c(c(O)c1C2=O)C[C@@](O)(C(=O)CO)C[C@@H]3O[C@H]1C[C@H](N)[C@H](O[C@@H]2CCCCO2)[C@H](C)O1` [Pirarubicin, pirarubicin], the IC50 [1, 6] is reported as 0.143 µg/mL, the IC25 ([1]; inhibition of cell growth) is reported as 96.58 ng/mL and the IC75 ([1]; inhibition of cell growth) is reported as 219.58 ng/mL.
